The source of these data is US20230265151A1, “GIP/GLP1 CO-AGONIST COMPOUNDS” (priority 2020, published 2023).

Common to all, as to format: cell-based
The target in experiment [1] is T1, hGIPR (Homo sapiens, UniProt P48546).
T1 construct: expressed in transfected cells
T1 sequence (P48546 22-466): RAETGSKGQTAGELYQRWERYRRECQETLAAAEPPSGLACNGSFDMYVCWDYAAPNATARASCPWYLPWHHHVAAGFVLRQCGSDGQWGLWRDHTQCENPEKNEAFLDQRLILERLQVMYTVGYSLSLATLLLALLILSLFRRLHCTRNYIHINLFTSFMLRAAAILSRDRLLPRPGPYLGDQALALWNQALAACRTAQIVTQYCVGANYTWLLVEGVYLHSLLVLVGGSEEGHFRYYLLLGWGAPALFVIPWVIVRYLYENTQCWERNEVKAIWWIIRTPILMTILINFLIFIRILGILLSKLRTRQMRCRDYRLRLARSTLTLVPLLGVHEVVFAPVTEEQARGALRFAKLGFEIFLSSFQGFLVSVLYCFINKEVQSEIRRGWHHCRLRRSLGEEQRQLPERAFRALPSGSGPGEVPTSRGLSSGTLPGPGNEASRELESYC
Briefly: Functional cAMP formation (HTRF) in HEK-293 clonal cells expressing hGIPR, 0.1% bovine casein, without or with 1.0% human serum albumin. The following applies: for EC50: hGIPR EC50, nM (SEM, n), 37° C., geometric mean. The procedure, abridged:
(§1)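 Cells were stimulated with peptide for 30 min at 37° C, then lysed in buffer carrying cAMP-d2 and anti-cAMP Eu3+-cryptate for a competitive HTRF read after at least 60 min at room temperature. The 665/620 nm ratio was converted to nM cAMP against a standard curve.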

In experiment [2] the target is hGLP-1R (Homo sapiens, UniProt P43220). Briefly: Functional cAMP formation (HTRF) in HEK-293 clonal cells expressing hGLP-1R, 0.1% bovine casein, without or with 1.0% human serum albumin. More on the design: expressed in transfected cells. The conditions noted are these: hGLP-1R EC50, nM (SEM, n), cAMP, 37° C., 0.1% bovine casein (no human serum albumin); geometric mean. The procedure, abridged: as §1

Experiment [3] deals with T2, hGCGR (Homo sapiens, UniProt P47871).
T2 construct: expressed in transfected cells
Briefly: Functional cAMP formation (HTRF) in HEK-293 clonal cells expressing hGCGR, 0.1% bovine casein, without or with 1.0% human serum albumin. The conditions noted are these: hGCGR EC50, nM (SEM, n), 37° C., geometric mean. The method in brief: as §1

The mark [4] stands for this setting: 0.1% bovine casein and 1.0% human serum albumin.
[5] abbreviates: cAMP, 0.1% bovine casein (no human serum albumin).

T2 sequence (P47871 26-477): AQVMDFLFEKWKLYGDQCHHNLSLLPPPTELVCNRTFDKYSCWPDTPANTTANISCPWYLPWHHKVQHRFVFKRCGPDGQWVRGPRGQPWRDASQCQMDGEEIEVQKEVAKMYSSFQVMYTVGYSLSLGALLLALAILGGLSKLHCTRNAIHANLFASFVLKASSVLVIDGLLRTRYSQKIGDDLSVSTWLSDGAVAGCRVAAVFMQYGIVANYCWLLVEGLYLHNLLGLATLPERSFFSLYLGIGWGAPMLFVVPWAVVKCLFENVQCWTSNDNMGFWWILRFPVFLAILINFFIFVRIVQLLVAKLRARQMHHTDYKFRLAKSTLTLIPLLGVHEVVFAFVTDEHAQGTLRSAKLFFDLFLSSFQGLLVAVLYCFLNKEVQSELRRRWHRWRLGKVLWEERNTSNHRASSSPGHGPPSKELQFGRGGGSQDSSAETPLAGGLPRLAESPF
Chain of hGLP-1R (P43220 24-463): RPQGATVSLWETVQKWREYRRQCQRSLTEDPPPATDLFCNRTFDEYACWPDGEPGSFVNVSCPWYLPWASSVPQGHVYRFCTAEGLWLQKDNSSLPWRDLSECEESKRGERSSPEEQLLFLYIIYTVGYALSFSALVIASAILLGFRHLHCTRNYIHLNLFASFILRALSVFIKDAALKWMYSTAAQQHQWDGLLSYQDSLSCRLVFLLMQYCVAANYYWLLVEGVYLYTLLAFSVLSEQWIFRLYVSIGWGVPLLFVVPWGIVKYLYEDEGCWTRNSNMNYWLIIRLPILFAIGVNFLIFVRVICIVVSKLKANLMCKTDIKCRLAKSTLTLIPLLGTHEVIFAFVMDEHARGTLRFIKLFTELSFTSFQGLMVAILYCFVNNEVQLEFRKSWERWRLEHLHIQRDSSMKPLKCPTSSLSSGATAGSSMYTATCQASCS

In the case of `CC[C@H](C)[C@H](NC(=O)[C@H](CCCN)NC(=O)[C@H](CC(=O)O)NC(=O)[C@H](CC(C)C)NC(=O)[C@](C)(CC(C)C)NC(=O)[C@@H](NC(=O)[C@](C)(CO)NC(=O)[C@@H](NC(=O)[C@H](CC(=O)O)NC(=O)[C@H](CO)NC(=O)[C@@H](NC(=O)[C@](C)(Cc1ccccc1F)NC(=O)[C@@H](NC(=O)CNC(=O)[C@H](CCC(=O)O)NC(=O)C(C)(C)NC(=O)[C@@H](N)Cc1ccc(O)cc1)[C@@H](C)O)[C@@H](C)O)C(C)C)[C@@H](C)CC)C(=O)N[C@@H](C)C(=O)N[C@@H](CCC(N)=O)C(=O)NC(C)(C)C(=O)N[C@@H](CCC(=O)O)C(=O)N[C@@H](Cc1ccccc1)C(=O)N[C@H](C(=O)N[C@@H](CCCCNC(=O)COCCOCCNC(=O)COCCOCCNC(=O)CC[C@H](NC(=O)CCCCCCCCCOc1ccc(C(=O)O)cc1)C(=O)O)C(=O)N[C@@](C)(Cc1ccc(O)cc1)C(=O)N[C@@H](CC(C)C)C(=O)N[C@H](C(=O)N[C@@H](CCCCNC(=O)COCCOCCNC(=O)COCCOCCNC(=O)CC[C@H](NC(=O)CCCCCCCCCOc1ccc(C(=O)O)cc1)C(=O)O)C(=O)NCC(=O)NCC(=O)N1CCC[C@H]1C(=O)N[C@@H](CO)C(=O)N[C@@H](CO)C(=O)NCC(=O)N[C@@H](C)C(=O)N1CCC[C@H]1C(=O)N1CCC[C@H]1C(=O)N1CCC[C@H]1C(=O)N[C@@H](CO)C(N)=O)[C@@H](C)CC)[C@@H](C)CC` [Example 309], the Emax in experiment [1] (HEK293, read-out: hGIPR Emax, % ± SEM, 0.1% bovine casein and 1.0% human serum albumin, 37° C., percent of maximal response to GIP(1-42)NH2) is 95.3%. Besides, the half-maximal effective concentration (EC50) is 6.08 nM in experiment [1] (setting [4]); 0.0212 nM in experiment [1] (setting [5]); 0.527 nM in experiment [2]; above 9950 nM in experiment [3] (setting [4]); above 9950 nM in experiment [3] (setting [5]).
